Experimental data taken from patent US10414763B2 (CANCER RESEARCH TECHNOLOGY LIMITED, priority 2014, dated 2019).

Each molecule was assayed against T1, full-length human PKCι (Homo sapiens, UniProt P41743) (assay: PKCι IC50 IMAP fluorescence polarisation assay, full-length enzyme, 150 μM ATP). Details: read-out: IC50 in IMAP assay against full length PKCi at 150 μM ATP.
T1 construct: Recombinant, full-length human PKCι expressed in Sf21 insect cells is also commercially available; purchased EMD Millipore; host or cells: Sf21 insect cells (baculovirus)
T1 sequence (P41743 1-596): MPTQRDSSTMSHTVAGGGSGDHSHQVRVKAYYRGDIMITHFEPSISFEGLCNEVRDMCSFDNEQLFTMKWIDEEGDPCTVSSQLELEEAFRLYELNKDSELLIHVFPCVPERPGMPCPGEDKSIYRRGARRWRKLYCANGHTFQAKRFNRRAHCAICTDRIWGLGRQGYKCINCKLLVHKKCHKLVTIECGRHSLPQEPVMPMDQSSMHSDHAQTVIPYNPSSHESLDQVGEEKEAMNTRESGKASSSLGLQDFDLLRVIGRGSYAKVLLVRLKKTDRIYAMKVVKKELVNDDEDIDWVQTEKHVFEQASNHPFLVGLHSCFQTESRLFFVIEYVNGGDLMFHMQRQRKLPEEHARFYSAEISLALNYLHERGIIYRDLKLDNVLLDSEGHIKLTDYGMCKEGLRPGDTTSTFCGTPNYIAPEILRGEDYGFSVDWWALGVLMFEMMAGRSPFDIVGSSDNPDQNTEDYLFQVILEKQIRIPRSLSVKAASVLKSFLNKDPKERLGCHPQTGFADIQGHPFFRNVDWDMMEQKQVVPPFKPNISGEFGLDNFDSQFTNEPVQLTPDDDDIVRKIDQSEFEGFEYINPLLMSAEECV
Type: biochemical
Summary of the method: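 IMAP fluorescence polarisation kinase assay: 15 pM baculovirus-expressed human PKCiota with 100 nM FAM-pseudosubstrate peptide and 150 μM ATP, 1 h at 25 °C. IMAP detection reagent then 2 h at 25 °C before FP measurement. Inhibition referenced to no-compound and no-enzyme controls for IC50 fitting.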

Compared with `N[C@@H]1CN(c2nc(-c3ccnc4[nH]c5ccccc5c34)nc3cncc(C4CCC4)c23)C[C@H]1O` (racemic) [Example 343, rac-(3R,4R)-4-Amino-1-[5-cyclobutyl-2-(9H-pyrido[2,3-b]indol-4-yl)-pyrido[3,4-d]pyrimidin-4-yl]-pyrrolidin-3-ol], `O[C@H]1CNCC[C@H]1Nc1nc(-c2ccnc3[nH]c4ccccc4c23)nc2cncc(C3CCC3)c12` (racemic) [Example 344, rac-(3S,4R)-4-[5-Cyclobutyl-2-(9H-pyrido[2,3-b]indol-4-yl)-pyrido[3,4-d]pyrimidin-4-ylamino]-piperidin-3-ol] is lower in IC50: 100 to 1000 nM for the first, < 100 nM for the second. The second is the more potent here.

`O[C@@H]1CNCC[C@H]1Nc1nc(-c2ccnc3[nH]c4ccccc4c23)nc2cncc(C3CCC3)c12` (racemic) [Example 345, rac-(3R,4R)-4-[5-Cyclobutyl-2-(9H-pyrido[2,3-b]indol-4-yl)-pyrido[3,4-d]pyrimidin-4-ylamino]-piperidin-3-ol] and `C[C@@H]1CNCC[C@H]1Nc1nc(-c2ccnc3[nH]c4ccccc4c23)nc2cncc(C3CCC3)c12` (racemic) [Example 346, [5-Cyclobutyl-2-(9H-pyrido[2,3-b]indol-4-yl)-pyrido[3,4-d]pyrimidin-4-yl]-(rac-(3R,4R)-3-methyl-piperidin-4-yl)-amine] cannot be ordered by IC50: < 100 nM for the first, < 100 nM for the second.

First: C[C@H]1CNCC[C@H]1Nc1nc(-c2ccnc3[nH]c4ccccc4c23)nc2cncc(C3CCC3)c12 (racemic) [Example 347, [5-Cyclobutyl-2-(9H-pyrido[2,3-b]indol-4-yl)-pyrido[3,4-d]pyrimidin-4-yl]-(rac-(3S,4R)-3-methyl-piperidin-4-yl)-amine]
Second: C[C@H]1CNCC[C@H]1Nc1nc(-c2ccnc3[nH]c4ccccc4c23)nc2cncc(C(F)(F)F)c12 (racemic) [Example 351, rac-(3S,4R)-3-Methyl-piperidin-4-yl)-[2-(9H-pyrido[2,3-b]indol-4-yl)-5-trifluoromethyl-pyrido[3,4-d]pyrimidin-4-yl]-amine]
The IC50 of the first is lower: < 100 nM for the first, 100 to 1000 nM for the second.

First: O[C@H]1CNCC[C@H]1Nc1nc(-c2ccnc3[nH]c4ccccc4c23)nc2cncc(C(F)(F)F)c12 (racemic) [Example 349, rac-(3S,4R)-4-[2-(9H-Pyrido[2,3-b]indol-4-yl)-5-trifluoromethyl-pyrido[3,4-d]pyrimidin-4-ylamino]-piperidin-3-ol]
Second: O[C@@H]1CNCC[C@H]1Nc1nc(-c2ccnc3[nH]c4ccccc4c23)nc2cncc(C(F)(F)F)c12 (racemic) [Example 350, rac-(3R,4R)-4-[2-(9H-Pyrido[2,3-b]indol-4-yl)-5-trifluoromethyl-pyrido[3,4-d]pyrimidin-4-ylamino]-piperidin-3-ol]
The IC50 of the first is higher: 100 to 1000 nM for the first, < 100 nM for the second. The second is the more potent here.

`C[C@@H]1CNCC[C@H]1Nc1nc(-c2ccnc3[nH]c4ccccc4c23)nc2cncc(C(F)(F)F)c12` (racemic) [Example 352, (rac-(3R,4R)-3-Methyl-piperidin-4-yl)-[2-(9H-pyrido[2,3-b]indol-4-yl)-5-trifluoromethyl-pyrido[3,4-d]pyrimidin-4-yl]-amine] and `C[C@H]1CNCC[C@@H]1Nc1nc(-c2ccnc(Nc3nc(F)ccc3F)c2)nc2cncc(C3CC3)c12` (single isomer, unassigned) [Example 334, 5-Cyclopropyl-2-[2-[(3,6-difluoro-2-pyridyl)amino]-4-pyridyl]-N-[(3S,4S)-3-methyl-4-piperidyl]pyrido[3,4-d]pyrimidin-4-amine or enantiomer] cannot be ordered by IC50: < 100 nM for the first, < 100 nM for the second.

`C[C@@]1(O)CNCC[C@H]1Nc1nc(-c2ccnc3[nH]c(-c4cc(F)ccc4Cl)cc23)nc2cncc(C3CC3)c12` (racemic) [Example 354, rac-(3R,4R)-4-{2-[2-(2-Chloro-5-fluoro-phenyl)-1H-pyrrolo[2,3-b]pyridin-4-yl]-5-cyclopropyl-pyrido[3,4-d]pyrimidin-4-ylamino}-3-methyl-piperidin-3-ol] and `CN(c1nc(-c2ccnc3[nH]c(-c4cc(F)ccc4Cl)cc23)nc2cncc(C3CC3)c12)[C@@H]1CCNC[C@@]1(C)O` (racemic) [Example 359, rac-(3R,4R)-4-({2-[2-(2-Chloro-5-fluoro-phenyl)-1H-pyrrolo[2,3-b]pyridin-4-yl]-5-cyclopropyl-pyrido[3,4-d]pyrimidin-4-yl}-methyl-amino)-3-methyl-piperidin-3-ol] cannot be ordered by IC50: < 100 nM for the first, < 100 nM for the second.

`O[C@@]12CCN(c3nc(-c4ccnc5[nH]c(-c6cc(F)ccc6Cl)cc45)nc4cncc(C5CC5)c34)[C@@H]1CCNC2` (racemic) [Example 358, rac(1R,3aS)-1-{2-[2-(2-Chloro-5-fluoro-phenyl)-1H-pyrrolo[2,3-b]pyridin-4-yl]-5-cyclopropyl-pyrido[3,4-d]pyrimidin-4-yl}-octahydro-pyrrolo[3,2-c]pyridin-3a-ol] and `O[C@H]1CNCC[C@H]1Nc1nc(-c2ccnc(Nc3nc(F)ccc3F)c2)nc2cncc(C3CCC3)c12` (racemic) [Example 381, rac-(3S,4R)-4-{5-Cyclobutyl-2-[2-(3,6-difluoro-pyridin-2-ylamino)-pyridin-4-yl]-pyrido[3,4-d]pyrimidin-4-ylamino}-piperidin-3-ol] cannot be ordered by IC50: < 100 nM for the first, < 100 nM for the second.

`C[C@H]1C[C@@H](Nc2nc(-c3ccnc(Nc4nc(F)ccc4F)c3)nc3cncc(C4CCC4)c23)CCN1` (racemic) [Example 386, {5-Cyclobutyl-2-[2-(3,6-difluoro-pyridin-2-ylamino)-pyridin-4-yl]-pyrido[3,4-d]pyrimidin-4-yl}-(rac-(2S,4S)-2-methyl-piperidin-4-yl)-amine] and `C[C@@H]1C[C@@H](Nc2nc(-c3ccnc(Nc4nc(F)ccc4F)c3)nc3cncc(C4CCC4)c23)CCN1` (racemic) [Example 387, {5-Cyclobutyl-2-[2-(3,6-difluoro-pyridin-2-ylamino)-pyridin-4-yl]-pyrido[3,4-d]pyrimidin-4-yl}-(rac-(2R,4S)-2-methyl-piperidin-4-yl)-amine] cannot be ordered by IC50: < 100 nM for the first, < 100 nM for the second.

`C[C@@H]1CNCC[C@H]1Nc1nc(-c2ccnc(Nc3nc(F)ccc3F)c2)nc2cncc(C3CCC3)c12` (single isomer, unassigned) [Example 279, {5-Cyclobutyl-2-[2-(3,6-difluoro-pyridin-2-ylamino)-pyridin-4-yl]-pyrido[3,4-d]pyrimidin-4-yl}-((3R,4R)-3-methyl-piperidin-4-yl)-amine or enantiomer] and `C[C@H]1CNCC[C@@H]1Nc1nc(-c2ccnc(Nc3nc(F)ccc3F)c2)nc2cncc(C3CCC3)c12` (single isomer, unassigned) [Example 280, {5-Cyclobutyl-2-[2-(3,6-difluoro-pyridin-2-ylamino)-pyridin-4-yl]-pyrido[3,4-d]pyrimidin-4-yl}-((3S,4S)-3-methyl-piperidin-4-yl)-amine or enantiomer] cannot be ordered by IC50: < 100 nM for the first, < 100 nM for the second.

`C[C@@H]1CNCC[C@@H]1Nc1nc(-c2ccnc(Nc3nc(F)ccc3F)c2)nc2cncc(C3CCC3)c12` (single isomer, unassigned) [Example 297, {5-Cyclobutyl-2-[2-(3,6-difluoro-pyridin-2-ylamino)-pyridin-4-yl]-pyrido[3,4-d]pyrimidin-4-yl}-((3R,4S)-3-methyl-piperidin-4-yl)-amine or enantiomer] and `C[C@H]1CNCC[C@H]1Nc1nc(-c2ccnc(Nc3nc(F)ccc3F)c2)nc2cncc(C3CCC3)c12` (single isomer, unassigned) [Example 298, {5-Cyclobutyl-2-[2-(3,6-difluoro-pyridin-2-ylamino)-pyridin-4-yl]-pyrido[3,4-d]pyrimidin-4-yl}-((3S,4R)-3-methyl-piperidin-4-yl)-amine or enantiomer] cannot be ordered by IC50: < 100 nM for the first, < 100 nM for the second.
